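Protocol summary: plate cells (96-well), add compound at 5 concentrations, incubate 48 h, interpolate endpoints linearly. The concentration for 50% growth inhibition is given as GI50.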 Calls of active or inactive are those of the source. Cut-off read from the data, not from the text of the source: active = GI50 up to about 1.1 µM and inactive = higher.
Key:
Assay in all cases: DTP human tumour cell line panel, 48 h
[1] = tested on: HL-60
[2] = tested on: SF-295
[3] = tested on: HOP-92
[4] = tested on: DMS-273
[5] = tested on: SW-620
[6] = tested on: SF-539
[7] = tested on: UACC-62
[8] = tested on: A549
[9] = tested on: KM12
[10] = tested on: SNB-78
[11] = tested on: XF498
[12] = tested on: SN12C
[13] = tested on: MOLT-4
[14] = tested on: M19-MEL
[15] = tested on: K562
[16] = tested on: Malme-3M
[17] = tested on: IGROV-1
[18] = tested on: LOX IMVI
[19] = tested on: OVCAR-5
[20] = tested on: CCRF-CEM
[21] = tested on: SNB-75
[22] = tested on: HCT-15
[23] = tested on: SK-OV-3
[24] = tested on: OVCAR-3
[25] = tested on: NCI-H226
[26] = tested on: OVCAR-8
[27] = tested on: DLD-1
[28] = tested on: KM-20L2
[29] = tested on: U-251
[30] = tested on: SK-MEL-5
[31] = tested on: OVCAR-4
[32] = tested on: HT-29
[33] = tested on: EKVX
[34] = tested on: MCF7
[35] = tested on: SK-MEL-2
[36] = tested on: NCI-H522
[37] = tested on: HCC 2998
[38] = tested on: NCI-H23
[39] = tested on: DMS-114
[40] = tested on: COLO 205
[41] = tested on: A498
[42] = tested on: NCI/ADR-RES
[43] = tested on: NCI-H460
[44] = tested on: SK-MEL-28
[45] = tested on: UACC-257
[46] = tested on: UO-31
[47] = tested on: SF-268
[48] = tested on: HCT-116
[49] = tested on: HOP-18
[50] = tested on: SNB-19
[51] = tested on: RPMI-8226
[52] = tested on: RXF 393
[53] = tested on: HOP-62
[54] = tested on: MDA-N
[55] = tested on: CAKI-1
[56] = tested on: MDA-MB-435
[57] = tested on: BT-549
[58] = tested on: MDA-MB-231
[59] = tested on: Hs-578T
[60] = tested on: TK-10
[61] = tested on: T47D
[62] = tested on: ACHN
[63] = tested on: M14
[64] = tested on: 786-0
[65] = tested on: PC-3
[66] = tested on: SR
[67] = tested on: DU-145

CSc1nc(NC2OC(CO)C(O)C(O)C2O)c(N)c(=O)[nH]1 (configuration not stated)
GI50 [1]: > 100 µM (inactive)
GI50 [2]: > 100 µM (inactive)
GI50 [3]: > 100 µM (inactive)
GI50 [4]: > 100 µM (inactive)
GI50 [5]: > 100 µM (inactive)
GI50 [6]: > 100 µM (inactive)
GI50 [7]: > 100 µM (inactive)
GI50 [8]: > 100 µM (inactive)
GI50 [9]: > 100 µM (inactive)
GI50 [10]: > 100 µM (inactive)
GI50 [11]: > 100 µM (inactive)
GI50 [12]: > 100 µM (inactive)
GI50 [13]: > 100 µM (inactive)
GI50 [14]: > 100 µM (inactive)
GI50 [15]: > 100 µM (inactive)
GI50 [16]: > 100 µM (inactive)
GI50 [17]: > 100 µM (inactive)
GI50 [18]: > 100 µM (inactive)
GI50 [19]: > 100 µM (inactive)
GI50 [20]: > 100 µM (inactive)
GI50 [21]: > 100 µM (inactive)
GI50 [22]: > 100 µM
GI50 [23]: > 100 µM (inactive)
GI50 [24]: > 100 µM (inactive)
GI50 [25]: > 100 µM (inactive)
GI50 [26]: > 100 µM (inactive)
GI50 [27]: > 100 µM (inactive)
GI50 [28]: > 100 µM (inactive)
GI50 [29]: > 100 µM (inactive)
GI50 [30]: > 100 µM (inactive)
GI50 [31]: > 100 µM (inactive)
GI50 [32]: > 100 µM (inactive)
GI50 [33]: > 100 µM (inactive)
GI50 [34]: > 100 µM (inactive)
GI50 [35]: > 100 µM (inactive)
GI50 [36]: > 100 µM (inactive)
GI50 [37]: > 100 µM (inactive)
GI50 [38]: > 100 µM (inactive)
GI50 [39]: > 100 µM (inactive)
GI50 [40]: > 100 µM (inactive)
GI50 [41]: > 100 µM (inactive)
GI50 [42]: > 100 µM (inactive)
GI50 [43]: > 100 µM (inactive)
GI50 [44]: > 100 µM (inactive)
GI50 [45]: > 100 µM (inactive)
GI50 [46]: > 100 µM (inactive)
GI50 [47]: > 100 µM (inactive)
GI50 [48]: > 100 µM (inactive)
GI50 [49]: > 100 µM (inactive)
GI50 [50]: > 100 µM (inactive)
GI50 [51]: > 100 µM (inactive)
GI50 [52]: > 100 µM (inactive)
GI50 [53]: > 100 µM (inactive)

CCCC(=O)OC1C(C(O)CO)OC2OC(C)(C)OC21 (configuration not stated)
GI50 [2]: > 100 µM (inactive)
GI50 [3]: > 100 µM (inactive)
GI50 [54]: > 100 µM (inactive)
GI50 [4]: > 100 µM (inactive)
GI50 [5]: > 100 µM (inactive)
GI50 [6]: > 100 µM (inactive)
GI50 [7]: > 100 µM (inactive)
GI50 [8]: > 100 µM (inactive)
GI50 [9]: > 100 µM (inactive)
GI50 [10]: > 100 µM (inactive)
GI50 [11]: > 100 µM (inactive)
GI50 [12]: > 100 µM (inactive)
GI50 [13]: > 100 µM (inactive)
GI50 [14]: > 100 µM (inactive)
GI50 [55]: > 100 µM (inactive)
GI50 [56]: > 100 µM (inactive)
GI50 [16]: > 100 µM (inactive)
GI50 [17]: > 100 µM (inactive)
GI50 [18]: > 100 µM (inactive)
GI50 [19]: > 100 µM (inactive)
GI50 [21]: > 100 µM (inactive)
GI50 [22]: > 100 µM
GI50 [23]: > 100 µM (inactive)
GI50 [24]: > 100 µM (inactive)
GI50 [25]: > 100 µM (inactive)
GI50 [26]: > 100 µM (inactive)
GI50 [27]: > 100 µM (inactive)
GI50 [28]: > 100 µM (inactive)
GI50 [29]: > 100 µM (inactive)
GI50 [30]: > 100 µM (inactive)
GI50 [31]: > 100 µM (inactive)
GI50 [32]: > 100 µM (inactive)
GI50 [57]: > 100 µM (inactive)
GI50 [58]: > 100 µM (inactive)
GI50 [33]: > 100 µM (inactive)
GI50 [34]: > 100 µM (inactive)
GI50 [35]: > 100 µM (inactive)
GI50 [36]: > 100 µM (inactive)
GI50 [37]: > 100 µM (inactive)
GI50 [38]: > 100 µM (inactive)
GI50 [59]: > 100 µM (inactive)
GI50 [60]: > 100 µM (inactive)
GI50 [61]: > 100 µM (inactive)
GI50 [39]: > 100 µM (inactive)
GI50 [40]: > 100 µM (inactive)
GI50 [41]: > 100 µM (inactive)
GI50 [42]: > 100 µM (inactive)
GI50 [43]: > 100 µM (inactive)
GI50 [44]: > 100 µM (inactive)
GI50 [62]: > 100 µM (inactive)
GI50 [45]: > 100 µM (inactive)
GI50 [63]: > 100 µM (inactive)
GI50 [46]: > 100 µM (inactive)
GI50 [47]: > 100 µM (inactive)
GI50 [48]: > 100 µM (inactive)
GI50 [64]: > 100 µM (inactive)
GI50 [49]: > 100 µM (inactive)
GI50 [50]: > 100 µM (inactive)
GI50 [65]: > 100 µM (inactive)
GI50 [66]: > 100 µM (inactive)
GI50 [67]: > 100 µM (inactive)
GI50 [51]: > 100 µM (inactive)
GI50 [52]: > 100 µM (inactive)
GI50 [53]: > 100 µM (inactive)
